Assay results reported in ChEMBL document CHEMBL1201862, “PubChem BioAssay data set” (2004).
The source made the active and inactive calls.

Columns and labels:
Format in all cases: functional
Caspase-3 = target: T1, Caspase-3 (Homo sapiens, UniProt P42574);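 also: Dose-response selectivity test against caspase-3 for candidate inhibitors of sentrin-specific proteases (SENPs)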
T1 sequence (P42574 whole entry): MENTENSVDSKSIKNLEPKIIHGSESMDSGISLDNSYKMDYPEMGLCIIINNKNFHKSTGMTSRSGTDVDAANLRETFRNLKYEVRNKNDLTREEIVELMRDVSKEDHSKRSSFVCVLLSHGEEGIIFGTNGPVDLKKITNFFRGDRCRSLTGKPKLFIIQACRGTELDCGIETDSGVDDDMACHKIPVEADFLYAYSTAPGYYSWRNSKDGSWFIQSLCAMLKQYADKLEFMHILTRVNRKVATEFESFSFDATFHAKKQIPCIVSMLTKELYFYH

[1] = target: T2, Sentrin-specific protease 7 (Homo sapiens, UniProt Q9BQF6);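 also: Luminescence-based dose-response confirmation of ultra-high-throughput screening hits, measuring inhibition of SENP7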
T2 sequence (Q9BQF6 whole entry): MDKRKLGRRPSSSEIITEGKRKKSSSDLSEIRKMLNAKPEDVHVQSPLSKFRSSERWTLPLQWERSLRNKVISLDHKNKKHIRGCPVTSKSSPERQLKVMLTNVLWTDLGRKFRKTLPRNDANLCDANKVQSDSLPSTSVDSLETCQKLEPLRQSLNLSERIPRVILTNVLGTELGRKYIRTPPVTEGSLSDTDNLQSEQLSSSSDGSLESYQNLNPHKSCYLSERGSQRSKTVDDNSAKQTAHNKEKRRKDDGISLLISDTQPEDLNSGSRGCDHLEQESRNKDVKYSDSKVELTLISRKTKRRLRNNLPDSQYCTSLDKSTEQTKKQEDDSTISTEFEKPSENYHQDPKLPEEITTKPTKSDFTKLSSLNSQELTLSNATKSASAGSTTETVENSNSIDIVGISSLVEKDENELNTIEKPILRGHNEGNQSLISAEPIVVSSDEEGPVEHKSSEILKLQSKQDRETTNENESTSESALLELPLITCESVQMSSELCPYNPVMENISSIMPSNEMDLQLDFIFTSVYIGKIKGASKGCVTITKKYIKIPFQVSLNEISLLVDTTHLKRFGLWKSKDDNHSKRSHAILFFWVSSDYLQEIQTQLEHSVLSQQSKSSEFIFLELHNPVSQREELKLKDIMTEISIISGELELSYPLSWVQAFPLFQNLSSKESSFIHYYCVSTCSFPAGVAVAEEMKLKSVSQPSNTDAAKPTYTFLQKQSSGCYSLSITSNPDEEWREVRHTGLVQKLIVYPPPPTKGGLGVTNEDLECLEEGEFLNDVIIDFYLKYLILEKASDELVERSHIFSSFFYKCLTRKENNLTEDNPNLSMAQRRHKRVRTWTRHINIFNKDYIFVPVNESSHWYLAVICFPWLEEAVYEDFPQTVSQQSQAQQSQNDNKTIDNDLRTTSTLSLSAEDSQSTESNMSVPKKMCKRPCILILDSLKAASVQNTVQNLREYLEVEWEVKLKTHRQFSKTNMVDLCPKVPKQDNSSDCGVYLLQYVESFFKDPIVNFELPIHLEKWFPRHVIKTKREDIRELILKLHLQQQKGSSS

[2] = target: T3, Sentrin-specific protease 6 (Homo sapiens, UniProt Q9GZR1);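 also: Luminescence-based dose-response confirmatory assay of SENP6 inhibition, following up an ultra-high-throughput screen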
T3 sequence (Q9GZR1 whole entry): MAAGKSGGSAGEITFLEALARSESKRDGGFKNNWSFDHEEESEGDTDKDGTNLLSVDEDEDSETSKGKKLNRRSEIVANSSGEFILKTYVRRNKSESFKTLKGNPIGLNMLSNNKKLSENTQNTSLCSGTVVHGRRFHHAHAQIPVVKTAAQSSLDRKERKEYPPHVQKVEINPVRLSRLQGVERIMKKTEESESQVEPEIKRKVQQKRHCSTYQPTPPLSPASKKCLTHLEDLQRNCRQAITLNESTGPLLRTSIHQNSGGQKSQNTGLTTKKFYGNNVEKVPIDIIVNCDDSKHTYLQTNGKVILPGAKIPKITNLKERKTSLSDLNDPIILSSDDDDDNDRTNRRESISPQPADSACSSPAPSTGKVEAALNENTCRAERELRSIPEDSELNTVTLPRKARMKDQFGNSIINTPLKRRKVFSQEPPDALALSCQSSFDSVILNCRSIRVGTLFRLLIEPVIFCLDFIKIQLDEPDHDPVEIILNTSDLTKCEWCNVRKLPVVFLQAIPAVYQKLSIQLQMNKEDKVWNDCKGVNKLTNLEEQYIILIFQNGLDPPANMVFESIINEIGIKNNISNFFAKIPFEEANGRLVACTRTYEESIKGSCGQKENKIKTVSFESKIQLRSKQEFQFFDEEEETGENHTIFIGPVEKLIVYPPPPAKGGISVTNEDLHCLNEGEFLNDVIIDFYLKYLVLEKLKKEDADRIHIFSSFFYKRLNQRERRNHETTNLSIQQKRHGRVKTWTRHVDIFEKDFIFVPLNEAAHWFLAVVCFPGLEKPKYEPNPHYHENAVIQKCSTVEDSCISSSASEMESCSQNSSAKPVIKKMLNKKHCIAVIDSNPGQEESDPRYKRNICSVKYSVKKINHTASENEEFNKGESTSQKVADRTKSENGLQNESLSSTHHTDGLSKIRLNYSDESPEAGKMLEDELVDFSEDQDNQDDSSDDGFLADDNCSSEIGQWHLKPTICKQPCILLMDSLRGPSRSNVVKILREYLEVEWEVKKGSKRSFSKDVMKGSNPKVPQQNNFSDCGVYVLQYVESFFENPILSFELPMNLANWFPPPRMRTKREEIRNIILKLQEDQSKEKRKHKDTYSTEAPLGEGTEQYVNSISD

[3] = target: T4, Sentrin-specific protease 8 (Homo sapiens, UniProt Q96LD8);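 also: luminescence read-out of SENP8 inhibition, dose-response confirmation following an ultra-high-throughput screen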
T4 sequence (Q96LD8 whole entry): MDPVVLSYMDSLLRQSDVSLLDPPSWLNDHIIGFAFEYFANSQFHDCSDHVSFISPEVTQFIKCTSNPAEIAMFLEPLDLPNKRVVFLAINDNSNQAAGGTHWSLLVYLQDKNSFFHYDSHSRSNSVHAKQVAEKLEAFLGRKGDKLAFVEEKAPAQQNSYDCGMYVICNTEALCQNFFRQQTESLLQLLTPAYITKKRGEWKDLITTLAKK

Phospholipase D1 = target: T5, Phospholipase D1 (Homo sapiens, UniProt Q13393); test: PLD1 inhibitor potency in cells, dose response (AID 602151);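 also: cellular PLD1 assay in Calu-1 cells stimulated with PMA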
T5 sequence (Q13393 whole entry): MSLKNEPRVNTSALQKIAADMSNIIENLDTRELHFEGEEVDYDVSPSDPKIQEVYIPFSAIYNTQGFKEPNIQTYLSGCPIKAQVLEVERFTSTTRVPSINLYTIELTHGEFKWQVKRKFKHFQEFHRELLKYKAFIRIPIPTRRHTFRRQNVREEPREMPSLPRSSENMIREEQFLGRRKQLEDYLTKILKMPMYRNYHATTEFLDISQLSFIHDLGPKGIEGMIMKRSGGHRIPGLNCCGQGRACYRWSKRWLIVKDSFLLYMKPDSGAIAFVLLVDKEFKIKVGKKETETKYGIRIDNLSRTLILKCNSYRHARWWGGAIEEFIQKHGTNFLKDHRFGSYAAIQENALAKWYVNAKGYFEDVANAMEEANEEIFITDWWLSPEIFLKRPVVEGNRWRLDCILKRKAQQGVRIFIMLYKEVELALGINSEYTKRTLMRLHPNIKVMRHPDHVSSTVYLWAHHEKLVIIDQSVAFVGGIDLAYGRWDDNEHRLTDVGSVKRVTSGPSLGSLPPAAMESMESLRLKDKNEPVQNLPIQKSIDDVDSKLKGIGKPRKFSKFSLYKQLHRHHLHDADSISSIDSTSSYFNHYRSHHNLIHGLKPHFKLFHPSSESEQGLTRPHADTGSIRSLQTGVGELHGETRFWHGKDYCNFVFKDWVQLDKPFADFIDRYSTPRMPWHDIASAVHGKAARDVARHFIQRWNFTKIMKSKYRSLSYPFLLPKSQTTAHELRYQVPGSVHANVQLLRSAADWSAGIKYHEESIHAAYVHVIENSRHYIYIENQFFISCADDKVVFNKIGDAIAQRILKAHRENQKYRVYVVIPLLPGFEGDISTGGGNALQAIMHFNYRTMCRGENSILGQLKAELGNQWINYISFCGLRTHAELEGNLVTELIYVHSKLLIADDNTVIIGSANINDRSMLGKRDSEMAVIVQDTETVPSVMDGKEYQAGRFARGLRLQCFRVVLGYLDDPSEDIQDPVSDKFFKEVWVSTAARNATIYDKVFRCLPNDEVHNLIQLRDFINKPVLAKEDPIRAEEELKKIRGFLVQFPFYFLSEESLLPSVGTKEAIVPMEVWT

Phospholipase D2 = Phospholipase D2 (Homo sapiens, UniProt O14939); test: PLD2 inhibitor potency in cells, dose response (AID 602147);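 also: cellular assay in HEK293 cells overexpressing GFP-tagged PLD2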
Phospholipase D2, sequence (O14939 whole entry): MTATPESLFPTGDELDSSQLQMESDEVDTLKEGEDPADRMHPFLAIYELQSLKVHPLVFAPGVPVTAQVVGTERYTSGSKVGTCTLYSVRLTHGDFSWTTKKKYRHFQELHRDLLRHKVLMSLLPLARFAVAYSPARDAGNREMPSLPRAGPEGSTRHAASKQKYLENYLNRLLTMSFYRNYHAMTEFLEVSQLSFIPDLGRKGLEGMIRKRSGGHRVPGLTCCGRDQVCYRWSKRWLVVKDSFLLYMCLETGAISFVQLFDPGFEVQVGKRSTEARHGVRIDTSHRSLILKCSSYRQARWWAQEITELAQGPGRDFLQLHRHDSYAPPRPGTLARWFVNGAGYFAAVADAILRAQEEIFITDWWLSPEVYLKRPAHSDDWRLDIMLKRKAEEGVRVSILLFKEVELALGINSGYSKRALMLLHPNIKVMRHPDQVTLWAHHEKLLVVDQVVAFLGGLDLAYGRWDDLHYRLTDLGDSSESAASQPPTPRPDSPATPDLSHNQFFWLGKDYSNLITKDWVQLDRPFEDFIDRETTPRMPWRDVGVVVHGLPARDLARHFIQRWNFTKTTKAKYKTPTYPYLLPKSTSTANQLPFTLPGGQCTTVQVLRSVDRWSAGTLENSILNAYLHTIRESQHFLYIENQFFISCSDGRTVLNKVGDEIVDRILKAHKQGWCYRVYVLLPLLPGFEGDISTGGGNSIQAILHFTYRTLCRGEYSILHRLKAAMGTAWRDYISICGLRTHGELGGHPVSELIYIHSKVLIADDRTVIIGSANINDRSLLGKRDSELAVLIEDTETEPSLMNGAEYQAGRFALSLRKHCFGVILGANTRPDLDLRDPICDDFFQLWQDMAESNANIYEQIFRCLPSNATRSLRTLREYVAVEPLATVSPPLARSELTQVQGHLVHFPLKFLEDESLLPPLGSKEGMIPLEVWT

[4] = Luminescence Cell-Based Dose Response HTS to Identify Activators of Luciferase Translation or Activity in H4 […] Cells. [Related pubchem assays: 1829 (Project Summary), 1814 (Primary HTS)]
H4 = test: Luminescence Cell-Based Dose Response HTS to Identify Activators of 5'UTR Stem-Loop Driven Prion Protein mRNA Translation in H4 Neuroglioblastoma Cells. [Related pubchem assays: 1829 (Project Summary), 1814 (Primary HTS)]; conditions: Homo sapiens
Aurora kinase A = target: T6, Aurora kinase A (Homo sapiens, UniProt O14965);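 also: value from the Navigating the Kinome kinase panel profiling, panel entry STK6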
T6 sequence (O14965 whole entry): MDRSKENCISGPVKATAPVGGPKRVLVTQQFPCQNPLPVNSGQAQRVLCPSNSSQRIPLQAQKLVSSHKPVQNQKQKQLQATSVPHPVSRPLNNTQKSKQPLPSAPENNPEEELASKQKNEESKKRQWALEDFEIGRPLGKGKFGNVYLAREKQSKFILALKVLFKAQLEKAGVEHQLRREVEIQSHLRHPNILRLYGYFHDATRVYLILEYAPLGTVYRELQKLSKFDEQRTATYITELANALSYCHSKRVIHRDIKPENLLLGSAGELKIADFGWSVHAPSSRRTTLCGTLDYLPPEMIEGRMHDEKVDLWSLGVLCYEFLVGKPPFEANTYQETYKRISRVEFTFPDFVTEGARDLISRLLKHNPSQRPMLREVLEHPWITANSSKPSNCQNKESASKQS

[5] = target: Vascular endothelial growth factor receptor 2 (Homo sapiens, UniProt P35968)
Vascular endothelial growth factor receptor 2, sequence (P35968 whole entry): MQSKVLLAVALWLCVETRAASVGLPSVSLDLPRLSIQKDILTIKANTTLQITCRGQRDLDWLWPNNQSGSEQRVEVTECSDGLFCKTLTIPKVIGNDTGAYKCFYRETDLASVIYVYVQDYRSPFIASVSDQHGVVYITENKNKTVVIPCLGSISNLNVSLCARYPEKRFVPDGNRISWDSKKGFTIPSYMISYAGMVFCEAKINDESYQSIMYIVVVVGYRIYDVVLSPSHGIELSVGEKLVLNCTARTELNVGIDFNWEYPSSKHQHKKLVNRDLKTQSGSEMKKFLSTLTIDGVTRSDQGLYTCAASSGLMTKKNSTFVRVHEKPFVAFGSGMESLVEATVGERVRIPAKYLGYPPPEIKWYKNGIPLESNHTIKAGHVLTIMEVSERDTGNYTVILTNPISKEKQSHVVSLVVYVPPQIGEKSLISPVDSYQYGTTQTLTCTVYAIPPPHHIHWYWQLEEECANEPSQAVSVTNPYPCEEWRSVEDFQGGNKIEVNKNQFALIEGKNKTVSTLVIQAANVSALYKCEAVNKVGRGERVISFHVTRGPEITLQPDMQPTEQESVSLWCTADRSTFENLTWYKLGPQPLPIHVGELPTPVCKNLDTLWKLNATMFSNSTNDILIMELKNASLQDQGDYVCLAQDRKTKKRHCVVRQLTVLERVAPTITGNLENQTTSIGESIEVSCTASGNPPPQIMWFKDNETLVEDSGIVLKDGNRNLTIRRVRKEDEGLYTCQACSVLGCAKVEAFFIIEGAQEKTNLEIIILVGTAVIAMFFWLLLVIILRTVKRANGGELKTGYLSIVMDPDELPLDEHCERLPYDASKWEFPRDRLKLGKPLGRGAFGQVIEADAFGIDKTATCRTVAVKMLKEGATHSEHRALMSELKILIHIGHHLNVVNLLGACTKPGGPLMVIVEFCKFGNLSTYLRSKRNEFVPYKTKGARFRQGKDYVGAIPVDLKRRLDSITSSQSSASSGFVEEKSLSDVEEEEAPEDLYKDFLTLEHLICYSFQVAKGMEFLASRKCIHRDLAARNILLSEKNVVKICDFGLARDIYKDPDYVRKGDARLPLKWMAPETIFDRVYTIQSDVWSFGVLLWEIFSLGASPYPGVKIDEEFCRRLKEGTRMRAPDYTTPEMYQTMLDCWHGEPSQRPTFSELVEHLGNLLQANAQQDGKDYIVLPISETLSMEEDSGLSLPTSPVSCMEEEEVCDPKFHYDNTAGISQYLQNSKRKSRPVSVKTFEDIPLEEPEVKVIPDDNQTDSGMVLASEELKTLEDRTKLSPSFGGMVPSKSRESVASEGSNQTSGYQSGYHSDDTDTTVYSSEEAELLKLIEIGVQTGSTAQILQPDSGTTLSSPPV

Aurora kinase B = Aurora kinase B (Homo sapiens, UniProt Q96GD4)
Aurora kinase B, sequence (Q96GD4 whole entry): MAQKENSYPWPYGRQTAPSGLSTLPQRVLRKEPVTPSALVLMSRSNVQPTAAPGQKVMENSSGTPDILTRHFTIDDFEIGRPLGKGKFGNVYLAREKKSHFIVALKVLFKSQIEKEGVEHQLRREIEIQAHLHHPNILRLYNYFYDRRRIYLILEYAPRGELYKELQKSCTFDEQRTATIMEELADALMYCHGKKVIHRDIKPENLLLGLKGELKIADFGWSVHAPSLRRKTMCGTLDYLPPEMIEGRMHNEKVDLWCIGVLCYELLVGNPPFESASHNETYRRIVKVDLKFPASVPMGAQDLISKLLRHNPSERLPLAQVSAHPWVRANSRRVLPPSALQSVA

COc1ccc(COC(=O)c2c(C)nn(-c3ccccc3)c2Cl)cc1
active: IC50 (Caspase-3) 40.2 µM | IC50 [1] 19.4 µM | IC50 [2] 73.3 µM | IC50 [3] 98.1 µM

C[C@H](CN1CCC2(CC1)C(=O)NCN2c1ccccc1)NC(=O)c1cc2cc(F)ccc2[nH]1
active: IC50 (Phospholipase D1) 0.002 µM | IC50 (Phospholipase D2) 0.023 µM

COc1ccc(-c2cc(O)cc(O)c2)cc1
active: EC50 [4] 3.8 µM | EC50 (H4) 4.12 µM | IC50 (Caspase-3) 30.9 µM | IC50 [1] 12.3 µM | IC50 [2] 41.1 µM | IC50 [3] 48 µM

C[C@@H](CN1CCC2(CC1)C(=O)NCN2c1ccccc1)NC(=O)[C@@H]1C[C@H]1c1ccccc1
active: IC50 (Phospholipase D1) 2.56 µM | IC50 (Phospholipase D2) 20 µM

CCCCS(=O)(=O)Nc1ccc2c(c1)C(=NO)c1ccccc1-2
active: Ki (Aurora kinase A) 1.26 µM | Ki [5] 1.58 µM | Ki (Aurora kinase B) 0.01 µM

CN(CCN1CCC(n2c(=O)[nH]c3ccccc32)CC1)C(=O)c1ccc2ccccc2c1
active: IC50 (Phospholipase D1) 2.06 µM | IC50 (Phospholipase D2) 20 µM
